Assay results published in PMC3725577 (Bioorganic & medicinal chemistry letters, 2011).
“Also recorded” adds a separate entry of the source.

Legend:
HeLa37 cells = assay: Cell viability; format: cell-based; conditions: concentrations as high as 100 µg/mL
HIV-1 NL4-3 = assay: Single round HIV infectivity in HeLa37 cells; format: cell-based

Row | SMILES | cytotoxicity (in words) (HeLa37 cells) | anti-HIV activity (in words) (HIV-1 NL4-3)
1 | CC1(C)CCc2c(O)c(C(=O)CC(=O)c3ccccc3)c(O)c(C=O)c2O1 [Compound 12, 6-(1,3-Dioxo-3-phenylpropyl)-2,2-dimethyl-8-formylchroman-5,7-diol] | highest cytotoxicity; also recorded: significant cytotoxicity at the higher concentrations tested | good activity
2 | CC(=O)c1c(O)c2c(c(C(C)=O)c1O)OC(C)(C)CC2 [Compound 6, 6,8-diacetyl-2,2-dimethylchroman-5,7-diol] | – | least active
